Source: US11517556B2, “Composition for BKCa channel activation” (GWANGJU INSTITUTE OF SCIENCE AND TECHNOLOGY, priority 2016, dated 2022)

Columns and labels:
[1] = molecular target: T1, rat BKCa channel α-subunit (rSlo1) (Rattus norvegicus, UniProt Q62976); experiment: Macroscopic current patch-clamp recording, Xenopus oocyte excised patches; assay type: cell-based
T1 construct: expressed in transfected cells; host or cells: Xenopus laevis oocytes injected with cRNA (vector pNBC1.0)
Excerpt: (§1) Xenopus laevis oocytes heterologously expressing a BKCa channel α-subunit (Slo1) were used for electrophysiological recording. Subcloning and functional expression of the rat BKCa channel α-subunit using the oocyte expression vector pNBC1.0 has been reported (Ha et al., 2000). Sequence information of Slo1 used in the present disclosure is published in GenBank as expression number AF135265. Plasmid DNA was linearized using Notl restriction enzyme, and complementary RNA (cRNA) was synthesized using T7 RNA polymerase in the presence of nucleoside triphosphate and cap analog m7G(5′)ppp(5′)G from a linear form of DNA using mMessage Machine (Ambion).
(§2) Oocytes from stages V to VI were surgically removed from ovarian lobes of anesthetized X. laevis (Xenopus I, Dexter, Mich.). The removed oocytes were transferred to a Ca^2+-free oocyte ringer's (OR) culture medium (86 mM NaCl, 1.5 mM KCl, 2 mM MgCl2 and 10 mM HEPES, pH 7.6). The oocytes were cultured in Ca^2+-free OR medium containing 3 mg/ml collagenase (Worthington Biochemicals) for 1 hour and 30 minutes to 2 hours. This removed the follicular cell layer of the oocyte. Then, the oocytes were widely washed with Ca^2+-free OR culture medium and ND-96 medium (96 mM NaCl, 2 mM KCl, 1.8 mM CaCl2, 1 mM MgCl2, 5 mM HEPES, and 50 µg/ml gentamycin, pH 7.6). The washed oocytes were stored at 18° C. in ND-96 medium. Before oocyte was used, the oocyte was stabilized for at least one day. After the stabilization, approximately 50 ng of synthesized cRNA in 50 nl of nuclease-free water was injected into each oocyte for macroscopic current recording, and approximately 1 ng of synthesized cRNA in 50 nl of nuclease-free water was injected into each oocyte for single-channel recording using a micro-dispenser (Drummond Scientific, Broomall, Pa.). The cRNA-injected oocytes were cultured in ND-96 medium for 1 to 3 days at 18 degree C. Immediately prior to the patch-clamp experiment, the oocyte's vitelline membrane was manually removed with fine forceps.
[…] Patch pipettes were prepared from borosilicate and glass (WPI, Sarasota, Fla.). The pipettes were fire-polished with a resistance of 2 to 4 MΩ for patch recording. For single-channel recording, the patch pipettes were fire-polished with 4 to 8 MΩ resistors. To reduce electrical noise, the pipettes were coated with beeswax. Using an Axopatch 200B amplifier (Axon Instruments), the channel current was amplified. Then, the current was low-pass filtered at 1 kHz using a four-pole Bessel filter. Then, the current was digitized at a rate of 10 points/ms using a Digidata 1200A (Axon Instruments).
A single BKCa channel was readily activated by a membrane potential simply transferred at 100 mV at a high concentration of intracellular Ca^2+. For the single-channel assay, the switching between the closed and open conditions was determined by setting a potency at a half of a unitary current amplitude. To determine the single-channel conductance of the expressed channel, the average amplitude of the channel current was obtained from the histograms fitted with Gaussian distributions. An average current for a membrane-pass voltage is shown. A slope-conductance values were obtained from linear regression. The macroscopic current of the expressed BKCa channel was activated by a voltage-clamp pulse delivered from a holding potential of −100 mV at 10 mV increment to a membrane potential of typically −80 to 200 mV, A dwell-time of recorded open and close events for the single BKCa channel was analyzed using a linear histogram method. The dwell-time distribution was fitted into a single index using simplex-least-squares fitting methods (Clampfit, Axon Instruments). A peak in the dwell-time distribution was located at a time-constant of an exponential component.
To prevent activation of endogenous calcium-activated chloride channels, solutions for single and macroscopic channel recording contained gluconate as a non-permeant negative ion. […]

[2] = molecular target: T1, rat BKCa channel α-subunit (rSlo1); experiment: Single-channel patch-clamp recording, outside-out patches of Xenopus oocytes; assay type: cell-based; details: 5 μM
Excerpt: as §1
as §2, with “forceps. […]” for “forceps.”
A single BKCa channel was readily activated by a membrane potential simply transferred at 100 mV at a high concentration of intracellular Ca^2+. For the single-channel assay, the switching between the closed and open conditions was determined by setting a potency at a half of a unitary current amplitude. […] The macroscopic current of the expressed BKCa channel was activated by a voltage-clamp pulse delivered from a holding potential of −100 mV at 10 mV increment to a membrane potential of typically −80 to 200 mV, A dwell-time of recorded open and close events for the single BKCa channel was analyzed using a linear histogram method. […]

[3] = system: spontaneous hypertensive rats (SHR); experiment: Voiding behavior of spontaneous hypertensive rats (SHR); assay type: in vivo, rat
Method: (§3) The voiding frequency was monitored for 3 hours. FIG. 9B represents a total number of voidings. Each symbol or bar represents average±SEM of 5 (WKY) or 7 (SHR) animals (*** P<0.001).
(§4) The cumulative voiding frequency is shown in FIG. 9A for WKY and SHR orally administered with kurarinone. The administration of kurarinone may allow distinct differences in voiding frequency to be evident between WKY and SHR. […] In the WKY control rat, the decrease of the voiding frequency was not observed.

Wistar Kyoto rat (WKY) = experiment: Voiding behavior of Wistar Kyoto rat (WKY); assay type: in vivo; details: up to 5 mg/kg
Method: as §3, §4

[4] = 5 μM, outside-out, 3 μM intracellular Ca2+, double-exponential fit
[5] = after removal of 5 μM kurarinone, outside-out

T1 sequence (Q62976 whole entry): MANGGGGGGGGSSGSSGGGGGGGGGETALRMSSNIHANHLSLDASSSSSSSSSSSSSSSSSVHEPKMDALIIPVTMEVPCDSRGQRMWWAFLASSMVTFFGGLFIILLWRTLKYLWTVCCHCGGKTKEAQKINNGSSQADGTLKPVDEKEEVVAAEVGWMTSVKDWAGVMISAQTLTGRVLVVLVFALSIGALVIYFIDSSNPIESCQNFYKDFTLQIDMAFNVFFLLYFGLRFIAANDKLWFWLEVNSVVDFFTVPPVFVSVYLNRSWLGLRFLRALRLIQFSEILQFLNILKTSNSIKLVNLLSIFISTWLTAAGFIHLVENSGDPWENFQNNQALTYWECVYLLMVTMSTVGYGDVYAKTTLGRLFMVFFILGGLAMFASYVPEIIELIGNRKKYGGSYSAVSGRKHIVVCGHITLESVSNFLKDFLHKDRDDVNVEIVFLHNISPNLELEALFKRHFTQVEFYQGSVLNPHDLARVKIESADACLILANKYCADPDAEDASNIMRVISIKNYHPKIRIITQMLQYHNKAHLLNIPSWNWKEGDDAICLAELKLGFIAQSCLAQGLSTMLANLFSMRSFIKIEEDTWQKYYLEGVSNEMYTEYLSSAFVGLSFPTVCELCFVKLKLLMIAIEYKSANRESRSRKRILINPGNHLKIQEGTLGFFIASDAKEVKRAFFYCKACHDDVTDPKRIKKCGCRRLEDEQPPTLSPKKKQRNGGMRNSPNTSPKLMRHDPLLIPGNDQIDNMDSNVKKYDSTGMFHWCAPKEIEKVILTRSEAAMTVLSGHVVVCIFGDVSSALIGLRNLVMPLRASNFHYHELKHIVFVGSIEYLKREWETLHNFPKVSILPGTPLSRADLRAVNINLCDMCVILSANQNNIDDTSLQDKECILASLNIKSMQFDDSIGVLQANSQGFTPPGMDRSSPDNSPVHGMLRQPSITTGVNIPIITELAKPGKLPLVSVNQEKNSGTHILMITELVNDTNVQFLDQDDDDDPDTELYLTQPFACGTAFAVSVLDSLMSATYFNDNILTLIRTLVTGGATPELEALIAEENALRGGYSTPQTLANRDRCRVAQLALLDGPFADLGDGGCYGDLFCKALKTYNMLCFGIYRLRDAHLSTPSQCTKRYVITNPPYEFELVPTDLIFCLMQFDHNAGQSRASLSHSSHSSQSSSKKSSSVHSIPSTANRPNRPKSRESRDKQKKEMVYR

activation time-constant (τactivation) ([1]; 0, 5, 10, 20 μM): not significantly increased | effect on tail-current ([1]; 5 μM on the extracellular surface, outside-out patch, 3 μM intracellular Ca2+): strongly potentiates the tail-current | association time-constant, fast phase (τfast) of potentiation [1, 4]: 1.47 ± 0.34 s | association time-constant, low-speed phase (τslow) of potentiation [1, 4]: 64.9 ± 8.8 s | maximum conductance relative to vehicle control ([1]; 20 μM): 1.8 times | shift of V1/2 in the negative direction ([1]; 20 μM vs vehicle): approximately 80 mV | half-active voltage (V1/2) of G-V relationship ([1]; 20 μM, 3 μM [Ca2+]i, vehicle 107.4±2.2 mV): 27.7±3.0 mV | maximum conductance (G/Gmax) ([1]; 20 μM, normalized to vehicle maximum): 1.35 | dissociation time-constant, fast phase of de-potentiation [1, 5]: 2.78 ± 0.95 s | dissociation time-constant, slow phase of de-potentiation [1, 5]: 90.06 ± 12.21 s | change in BKCa channel current on treatment from the inside of the cell ([1]; excised inside-out patch recording): no significant change | deactivation rate ([1]; increasing concentrations up to 20 μM, voltage-dependent): dramatically decreased | half-activation voltage (V1/2) of single-channel open-probability ([2]; 10 μM intracellular Ca2+, control 68.7±3.7 mV): 43.7±2.1 mV | single-channel conductance ([2]; 10 μM intracellular Ca2+, control 221.1±16.4): 238.3±8.7 pS | average opening-time of single channel ([2]; 50 mV, 2.98+/−0.34 ms in absence): 5.77 ± 0.90 ms | average closing time of single channel ([2]; 50 mV, 3.69±0.80 ms in absence): 3.60 ± 4.1 ms
SMILES: C=C(C)[C@H](CC=C(C)C)Cc1c(O)cc(OC)c2c1O[C@H](c1ccc(O)cc1O)CC2=O [kurarinone]
total voiding frequency for 3 hours ([3]; 5 mg/kg, vehicle 10.9±1.4): 6.9±0.8 | effect on voiding frequency ([3]; 0.5 and 5 mg/kg): reduced the voiding frequency for SHR in a dose-dependent manner | effect on voiding frequency (Wistar Kyoto rat (WKY)): not affected
